Data on 32 compounds can be found in patent US10548935B2, “Composition and method for preventing, reducing, alleviating or treating idiopathic vomiting” (Mars, Incorporated, priority 2013, dated 2020).

Counter-ions that a name gives are not always drawn.

The target of one series is T1, h5HT3A receptor (Homo sapiens, UniProt P46098).
T1 construct: expressed in transfected cells
T1 sequence (P46098 24-478): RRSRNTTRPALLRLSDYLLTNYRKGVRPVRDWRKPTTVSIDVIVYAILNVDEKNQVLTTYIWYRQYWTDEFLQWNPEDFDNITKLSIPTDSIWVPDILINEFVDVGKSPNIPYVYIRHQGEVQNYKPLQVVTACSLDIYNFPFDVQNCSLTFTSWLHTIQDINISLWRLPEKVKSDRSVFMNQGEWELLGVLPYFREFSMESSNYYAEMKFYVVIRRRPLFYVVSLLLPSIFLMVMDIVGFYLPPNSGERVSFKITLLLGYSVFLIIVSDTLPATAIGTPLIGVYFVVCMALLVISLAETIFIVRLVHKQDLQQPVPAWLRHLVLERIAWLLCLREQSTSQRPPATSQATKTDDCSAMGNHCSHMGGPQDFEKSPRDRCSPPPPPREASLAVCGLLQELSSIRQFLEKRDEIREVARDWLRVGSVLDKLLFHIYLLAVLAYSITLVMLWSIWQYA
Nature of the series: Assays for screening 5-HT3a receptor inhibitors (FLIPR calcium assay or aequorin-assisted serotonin receptor assay; dosage response curves). Format: cell-based. The source says:
Various known high through-put screening assays can be used to determine the inhibitory effects of a material on the 5-HT3a receptors.
Due to activation of 5HT3 receptor following calcium and sodium influx and the subsequent rapid intracellular calcium and sodium increase, a calcium indicator (e.g., Fluo-4 AM) or a sodium dye can therefore be readily used to detect influx Ca^+2 or Na^+ signal using the Flourometric Imaging Plate Reader (FLIPR) assay to identify agonists or antagonists of 5-HT3a receptors.
The 5-HT3a FLIPR assay can specifically be conducted by the following steps. First, […] (human embryonic kidney) cells stably expressed with h5HT3A receptor are grown in 16-18 ml growth medium in a 75 cm^2 flask for 2-3 days at 37° C. in a mammalian cell culture incubator with 5% CO2 and 90% humidity. The growth medium may contain, for example, DMEM/F12 (1:1, Invitrogen 11039) supplemented with 10% FBS (fetal bovine serum), 100 μg/ml Antibiotic/Antimycotic, and 150 ug/ml G418. The cell medium is then transferred to a 50 ml tube, and the cells are washed with 10 ml PBS. Subsequently, 2 ml of 0.05% Trypsin-EDTA is added to detach cells, and the above cell medium is added back to flask to inactivate trypsin. Next, the cells are transferred back to the above 50 ml tube, which is centrifuged at 850 rpm for 3 minutes to remove medium. The cells obtained from centrifugation are then re-suspended with growth medium at 1-1.5 ml per flask cells. One vial of Fluo-4 AM (calcium indicator, 50 ug) is subsequently dissolved with 20 ul of Pluronic F-127, and 10 ul of Fluo-4 AM solution per flask cells is added (1 vial of Fluo-4 AM solution, 20 ul, is good for 2 flask of cells). The cells are then stained with Fluo-4 AM for 30 min at room temperature with gently shaking on a shaker, followed by addition of 45 ml of the assay buffer [HBSS with CaCl2 and MgCl2 (Invitrogen 14025), 20 mM HEPES, pH7.2] to wash cells once. Centrifugation is carried out once more at 850 rpm for 3 minutes to remove assay buffer. The resulting cell pellet is again re-suspended in Assay buffer (per flask cells with 18-20 ml assay buffer). Ninety microliters of cells (50K cells/well) is loaded in the 96-well plates that are pre-loaded with the compounds to be tested (10 ul of 1 mM test materials, the final concentration of the test materials will be 100 uM). The plates are placed at room temperature for 15-30 min in dark and then transferred to FLIPR-384 instrument (Molecular Devices). […] The calcium signal of the test plates is finally recorded by the FLIPR program. The average and standard deviations are calculated using Excel, and the background (buffer) is subtracted. The percentage (%) inhibition is then calculated as
[formula] A test material will be considered as having an inhibitory effect against the 5-HT3a receptor if the percentage inhibition calculated is greater than 40%.
Aequorin is a photo-protein originating from the Jellyfish Aequorea Victoria. It is initially translated as an apo-enzyme requiring the hydrophobic group coelenterazine to initiate the conversion to aequorin. Upon binding of calcium, the coelenterazine is oxidized by aequorin into coelenteramide (BFP) resulting in the emission of blue light and CO2. Therefore, it is particularly useful for visualizing or detecting influx Ca^+2 signal.
After 18-24 h of culture, the cells are detached gently by flushing with their cell culture medium. Washing with an additional 10 mLs of cell culture media will ensure that optimum number of cells is captured. The cells are then centrifuged at 150×g, counted and re-suspended at 1×10^6 cells/mL in BSA medium [DMEM/Ham's F12 (with 15 mM HEPES, L-glutamine, without phenol red) culture medium (Invitrogen, Cat. No. 11039-021)+10% protease-free BSA (Sigma Aldrich, Cat. No. A9205) in H2O with a final BSA concentration of 0.1%] in a Falcon tube. Coelenterazine is added at a final concentration of 5 μM in assay medium.

The target of a further series is T2, NK-1 receptor (Homo sapiens, UniProt P25103).
T2 construct: host or cells: U2OS (Tango TACR1-bla)
T2 sequence (P25103 whole entry): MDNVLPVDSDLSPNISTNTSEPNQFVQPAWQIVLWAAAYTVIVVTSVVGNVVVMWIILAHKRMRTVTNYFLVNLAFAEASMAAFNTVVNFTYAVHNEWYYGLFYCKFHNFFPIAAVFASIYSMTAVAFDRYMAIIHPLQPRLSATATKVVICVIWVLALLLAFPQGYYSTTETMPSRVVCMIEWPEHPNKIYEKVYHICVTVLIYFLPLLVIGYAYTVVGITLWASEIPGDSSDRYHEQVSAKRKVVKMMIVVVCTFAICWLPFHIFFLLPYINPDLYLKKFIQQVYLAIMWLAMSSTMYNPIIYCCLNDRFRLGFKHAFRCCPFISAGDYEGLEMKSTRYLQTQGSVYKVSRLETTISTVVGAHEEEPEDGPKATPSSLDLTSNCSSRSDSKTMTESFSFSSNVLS
Briefly: Tango GPCR cell-based assay, TACR1-bla U2OS cells, NK-1 receptor inhibitors. As to conditions: 1 nM SAR9 Substance P agonist. The procedure:
Various known high through-put screening assays can also be used to determine the inhibitory effects of a material on the NK-1 receptors.
One exemplary assay is the Tango™ G-Protein Coupled Receptors (GPCR) cell-based assays by Invitrogen. First, TACR1-bla U2OS cells (from Invitrogen) are cultured in McCoy's medium. The cultured cells are then plated in DMEM into 96-well plates (15,125 cells/well in 90 uL/well). After 16-24 hours, the cells are treated with test materials or positive control antagonist (which is 100 nM Aprepitant) and then incubated for 30-60 minutes at 37° C. in 5% CO2. Subsequently, the cells are treated with 1 nM SAR9 Substance P agonist and incubated again for 5 hours at 37° C. in 5% CO2. The plates are removed from the incubator and equilibrated at room temperature for 15 minutes. During the equilibration step, the LiveBlazer substrate detection solution (from Invitrogen) is prepared. Six times of substrate mixture is added to each well, followed by incubating the plates in the dark at room temp for 2 hours. The plates are read by the Envision microplate reader in 2 channels using the “Geneblazer 451” protocol, which include a blue channel (Excitement at 405 and Emission at 460) and a green channel (Excitement at 405 and Emission at 535).
FIGS. 45-70 show the NK-1 dosage response curves of compounds described hereinabove with high NK-1 inhibitory effect.

As to `CCCCCCCCC1CCC(=O)O1` (centres unmarked) [Gamma-dodecalactone], the “5-HT3a receptor inhibitory effect” value on h5HT3A receptor is given as “surprisingly high”. In the series “Cell toxicity”, the cell toxicity entry is on record as “little or no”.

As to `CCCCCCCCC(=O)NCc1ccc(O)c(OC)c1` [Nonivamide], the “5-HT3a receptor inhibitory effect” value at h5HT3A receptor is reported as “surprisingly high”. In addition, the cell toxicity result in the series “Cell toxicity” is reported as “little or no”.

For the compound `CCCCCC1C(=O)CCC1CC(=O)OC` (centres unmarked) [Methyl dihydrojasmonate], the “5-HT3a receptor inhibitory effect” value at h5HT3A receptor was “surprisingly high”. Also, the cell toxicity entry in the series “Cell toxicity” is “little or no”.

Turning to Vetiverol, the “5-HT3a receptor inhibitory effect” value at h5HT3A receptor is recorded as “surprisingly high”. For the same compound, in “Cell toxicity”, the cell toxicity entry is “little or no”.

Turning to `CCCCCCCCCC1CCCC(=O)O1` (centres unmarked) [Delta-tetradecalactone], the “5-HT3a receptor inhibitory effect” value at h5HT3A receptor is recorded as “surprisingly high”. In addition, the cell toxicity result in “Cell toxicity” was “little or no”.

As to `CCCOC(=O)c1ccc(O)cc1` [N-propyl-4-hydroxybenzoate], on h5HT3A receptor, the “5-HT3a receptor inhibitory effect” value is given as “surprisingly high”.

`CCOc1ccc2c(c1)C(C)=CC(C)(C)N2` [Ethoxyquin]: on h5HT3A receptor, the “5-HT3a receptor inhibitory effect” value is given as “surprisingly high”. In addition, the cell toxicity entry in “Cell toxicity” is “little or no”.

On to `CCCCOC(=O)CC(O)(CC(=O)OCCCC)C(=O)OCCCC` [Tributyl citrate], for which the “5-HT3a receptor inhibitory effect” value at h5HT3A receptor was “surprisingly high”. Also, the cell toxicity result in the series “Cell toxicity” is on record as “little or no”.

Turning to `CCCCCCCC1CC(C)OC1=O` (centres unmarked) [3-heptyldihydro-5-methyl-2(3H)-furanone], the “5-HT3a receptor inhibitory effect” value on h5HT3A receptor is “surprisingly high”. In the series “Cell toxicity”, the cell toxicity entry is reported as “little or no”.

As to `C=C(C)[C@@H]1CCC2=CC(=O)C[C@@H](C)[C@]2(C)C1` [Nootkatone], the “5-HT3a receptor inhibitory effect” value at h5HT3A receptor is “surprisingly high”. The cell toxicity result in the series “Cell toxicity” is “little or no”.

In the case of `CCCCCC/C=C\CCCCCCCC(=O)O` [Palmitoleic acid], the “5-HT3a receptor inhibitory effect” value at h5HT3A receptor is “surprisingly high”. For the same compound, in “Cell toxicity”, the cell toxicity result was “little or no”.

Take `C[C@@H]1CC[C@H]2C(C)(C)[C@H]3C[C@@]12CC[C@@]3(C)O` [(+)-cedrol]: the “5-HT3a receptor inhibitory effect” value on h5HT3A receptor is recorded as “surprisingly high”. Also, the cell toxicity entry in “Cell toxicity” is “little or no”.

Take `CC1=C(CCC(=O)O)c2cc3[nH]c(cc4nc(cc5[nH]c(cc1n2)c(C)c5C(C)O)C(C)=C4C(C)O)c(C)c3CCC(=O)O` (centres unmarked) [Hematoporphyrin dihydrochloride]: the cell toxicity result in the series “Cell toxicity” is on record as “little or no”.

For `COc1ccc(-c2coc3cc(O)cc(O)c3c2=O)cc1` [Biochanin A], the “5-HT3a receptor inhibitory effect” value on h5HT3A receptor is “surprisingly high”. Also, the cell toxicity result in the series “Cell toxicity” was “little or no”.

In the case of `Cc1cc2nc3c(=O)[nH]c(=O)nc-3n(C[C@H](O)[C@H](O)[C@H](O)CO)c2cc1C` [Riboflavin VB2, Riboflavin], the “5-HT3a receptor inhibitory effect” value at h5HT3A receptor is recorded as “surprisingly high”.

Regarding `OCCCCCCCCCCCCCCO` [1,14-Tetradecanediol], the “5-HT3a receptor inhibitory effect” value at h5HT3A receptor is on record as “surprisingly high”. In the series “Cell toxicity”, the cell toxicity result was “little or no”.

Turning to `CCCCCC(=Cc1ccccc1)CO` [Alpha-amylcinnamyl alcohol], on h5HT3A receptor, the “5-HT3a receptor inhibitory effect” value is listed as “surprisingly high”. Further, the cell toxicity result in “Cell toxicity” is recorded as “little or no”.

Consider `c1ccc(CCCc2ccccn2)cc1` [Cortex pyridine, 2-(3-phenylpropyl)pyridine], for which the “5-HT3a receptor inhibitory effect” value on h5HT3A receptor is listed as “surprisingly high”. Moreover, the cell toxicity result in the series “Cell toxicity” is “little or no”.

As for `CC(C)[C@@H]1CC[C@@H](C)C[C@H]1OCC(O)CO` (some centres unmarked) [Menthoxypropanediol], on h5HT3A receptor, the “5-HT3a receptor inhibitory effect” value is given as “surprisingly high”.

`CC(=O)/C=C/C1C(C)=CCCC1(C)C` (stereo not drawn) [Alpha-lonone]: the “5-HT3a receptor inhibitory effect” value at h5HT3A receptor was “surprisingly high”. Moreover, in “Cell toxicity”, the cell toxicity entry was “little or no”.

Consider `CC(C)=CCCC(C)=CCCC(C)=CC=O` [Farnesal], for which the “5-HT3a receptor inhibitory effect” value at h5HT3A receptor is reported as “surprisingly high”. Further, the cell toxicity entry in the series “Cell toxicity” is listed as “little or no”.

Consider `O=C(CCc1ccc(O)cc1)c1c(O)cc(O)cc1O` [Phloretin], for which, at h5HT3A receptor, the “5-HT3a receptor inhibitory effect” value is recorded as “surprisingly high”. Moreover, the cell toxicity result in the series “Cell toxicity” is listed as “little or no”.

On to `CC(C)=CCC[C@](C)(O)C1CC=C(C)CC1` (some centres unmarked) [Bisabolol], for which the “5-HT3a receptor inhibitory effect” value at h5HT3A receptor was “surprisingly high”. The cell toxicity result in the series “Cell toxicity” is recorded as “little or no”.

On to `CCCCCCCC1CCCC(=O)O1` (centres unmarked) [Delta-dodecalactone], for which, at h5HT3A receptor, the “5-HT3a receptor inhibitory effect” value was “surprisingly high”. The cell toxicity entry in the series “Cell toxicity” is on record as “little or no”.

In the case of `Cc1c(O)ccc(O)c1C` [2,3-dimethyl-1,4-benzenediol], the “5-HT3a receptor inhibitory effect” value at h5HT3A receptor is “surprisingly high”. Also, the cell toxicity entry in the series “Cell toxicity” is reported as “little or no”.

Regarding `O=c1cc(-c2ccccc2)oc2ccccc12` [Flavone], at h5HT3A receptor, the “5-HT3a receptor inhibitory effect” value was “surprisingly high”. Also, the cell toxicity result in “Cell toxicity” was “little or no”.

For `C=C1CC[C@H](O)C/C1=C/C=C1\CCC[C@]2(C)[C@@H]([C@H](C)CCCC(C)C)CC[C@@H]12` [Cholecalciferol VD3, Cholecalciferol], the “5-HT3a receptor inhibitory effect” value at h5HT3A receptor is “surprisingly high”.

With `O=C(/C=C/C=C/c1ccc2c(c1)OCO2)N1CCCCC1` [Piperine], the cell toxicity entry in “Cell toxicity” is recorded as “little or no”.

Consider `CCCCOCc1ccc(O)c(OC)c1` [Vanillyl butyl ether], for which the “5-HT3a receptor inhibitory effect” value at h5HT3A receptor is given as “surprisingly high”. For the same compound, the cell toxicity result in “Cell toxicity” is listed as “little or no”.

Regarding `CC/C=C\C/C=C\C/C=C\C/C=C\C/C=C\CCCC(=O)O` [Eicosapentaenoic acid], the cell toxicity entry in the series “Cell toxicity” is given as “little or no”.

For the compound `CC(=O)C=Cc1ccccc1` [Benzylidenacetone], the “NK-1 receptor inhibitory effect” value on NK-1 receptor is reported as “surprisingly high”.

As to `CCCCCCCCCCC/C=C\CCCCC(=O)O` [Petroselinic acid], the “5-HT3a receptor inhibitory effect” value on h5HT3A receptor is “surprisingly high”. The cell toxicity entry in “Cell toxicity” is reported as “little or no”.
